Key:
Assay in all cases: Bliss excess, mean over the matrix (fraction); higher = more synergy
[1] = system: A4-Fuk (B-Lymphoblastic Leukemia)
Summary of the method: (§1)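 Bliss excess equals the observed combination effect minus the expected value EA + EB − EA·EB, where EA and EB are the effects of each agent alone. Combination Emax is the second-highest inhibition within the matrix. Inhibition was scaled from CellTiter-Glo 2.0 luminescence, with 0 set by vehicle wells and 1 by blank wells, after 72 hours of two-drug dosing of cells plated in 1536-well plates.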

[2] = system: ALL-SIL (T-Lymphoblastic Leukemia)
Summary of the method: as §1

[3] = system: CADO-ES1 (Ewing's Sarcoma)
Summary of the method: as §1

[4] = system: G-401 (Other Solid Carcinomas)
Summary of the method: as §1

[5] = system: HCC1500 (Breast Carcinoma)
Summary of the method: as §1

[6] = system: HCC2998 (Colorectal Carcinoma)
Summary of the method: as §1

Hey (Ovarian Carcinoma) = system: Hey (Ovarian Carcinoma)
Summary of the method: as §1

[7] = system: KMRC-1 (Kidney Carcinoma)
Summary of the method: as §1

[8] = system: ML-2 (Acute Myeloid Leukemia)
Summary of the method: as §1

[9] = system: MOLT-4 (T-Lymphoblastic Leukemia)
Summary of the method: as §1

[10] = system: Mo-T (Other Blood Carcinomas)
Summary of the method: as §1

[11] = system: NCI-H1355 (Lung Adenocarcinoma)
Summary of the method: as §1

[12] = system: NCI-H1838 (Lung Adenocarcinoma)
Summary of the method: as §1

[13] = system: NCI-H1993 (Lung Adenocarcinoma)
Summary of the method: as §1

[14] = system: NCI-H2122 (Lung Adenocarcinoma)
Summary of the method: as §1

[15] = system: NCI-H522 (Lung Adenocarcinoma)
Summary of the method: as §1

[16] = system: NCI-H650 (Lung Adenocarcinoma)
Summary of the method: as §1

[17] = system: OACM5-1 (Esophageal Adenocarcinoma)
Summary of the method: as §1

[18] = system: SKN (Other Solid Carcinomas)
Summary of the method: as §1

[19] = system: MV-4-11 (Acute Myeloid Leukemia)
Summary of the method: as §1

Compound | Bliss excess [1] | Bliss excess [2] | Bliss excess [3] | Bliss excess [4] | Bliss excess [5] | Bliss excess [6] | Bliss excess (Hey (Ovarian Carcinoma)) | Bliss excess [7] | Bliss excess [8] | Bliss excess [9] | Bliss excess [10] | Bliss excess [11] | Bliss excess [12] | Bliss excess [13] | Bliss excess [14] | Bliss excess [15] | Bliss excess [16] | Bliss excess [17] | Bliss excess [18] | Bliss excess [19]
CN(CCO)CC[C@H](CSc1ccccc1)Nc1ccc(S(=O)(=O)NC(=O)c2ccc(N3CCC([C@@H](O)c4ccccc4-c4ccc(Cl)cc4)CC3)cc2)cc1S(=O)(=O)C(F)(F)F [AZD4320] + C=CCn1c(=O)c2cnc(Nc3ccc(N4CCN(C)CC4)cc3)nc2n1-c1cccc(C(C)(C)O)n1 [AZD1775] (first compound max 1 µM, partner max 1 µM) | -0.0107 | 0.0693 | -0.005 | -0.0058 | 0.11 | 0.0609 | -0.053 | 0.0036 | -0.0228 | 0.0674 | 0.0529 | 0.0162 | -0.0311 | 0.0951 | -0.0143 | -0.0299 | 0.0369 | -0.01 | 0.0666 | 
Cc1c2c(nn1C)CSCc1cc(n(C)n1)CSc1cc(c3ccccc3c1)OCCCc1c(C(=O)O)n(C)c3c-2c(Cl)ccc13 [AZD5991] + Cc1cc2ncnn2cc1Nc1ncc2c(n1)n(C1CCOCC1)c(=O)n2C [AZD7648] (first compound max 1 µM, 7x7, partner max 10 µM) | 0.0085 | -0.0253 | -0.0296 | -0.167 | -0.0471 | -0.0317 | -0.015 | -0.0161 | -0.0314 | -0.0072 | -0.08 | -0.0055 | -0.0929 | -0.0225 | -0.0559 | -0.0586 | -0.0101 |  | -0.0386 | -0.0151
Cc1c2c(nn1C)CSCc1cc(n(C)n1)CSc1cc(c3ccccc3c1)OCCCc1c(C(=O)O)n(C)c3c-2c(Cl)ccc13 [AZD5991] + C=CCn1c(=O)c2cnc(Nc3ccc(N4CCN(C)CC4)cc3)nc2n1-c1cccc(C(C)(C)O)n1 [AZD1775] (first compound max 1 µM, partner max 1 µM) | 0.0204 | 0.0026 | -0.0308 | 0.0023 | 0.0305 | 0.0142 | -0.0325 | 0.0071 | -0.0342 | -0.0043 | 0.0127 | 0.0071 | 0.0159 | 0.0026 |  | -0.0201 | 0.0397 | -0.04 | -0.0269 | -0.0407
CS(=O)(=O)CCNCc1ccc(-c2ccc3ncnc(Nc4ccc(OCc5cccc(F)c5)c(Cl)c4)c3c2)o1 [Lapatinib] + NC1(c2ccc(-c3nc4ccn5c(=O)[nH]nc5c4cc3-c3ccccc3)cc2)CCC1 [MK-2206] (first compound max 10 µM, 7x7, partner max 10 µM) | 0.0825 |  |  |  | 0.0415 |  |  | 0.0098 | 0.0017 | 0.0866 | 0.0719 | 0.0319 | -0.0422 | -0.0147 |  | -0.0313 | -0.0464 |  | -0.0645 | 0.0371
C=CCn1c(=O)c2cnc(Nc3ccc(N4CCN(C)CC4)cc3)nc2n1-c1cccc(C(C)(C)O)n1 [AZD1775] + C1CN(CCC1(C(=O)N[C@@H](CCO)C2=CC=C(C=C2)Cl)N)C3=NC=NC4=C3C=CN4 [Capivasertib] (first compound max 3 µM, partner max 3 µM) | -0.0977 | -0.0129 | 0.006 | -0.0241 | -0.0462 | 0.0232 | -0.0475 | -0.0762 | -0.0148 | 0.0536 | -0.05 | 0.0046 | -0.0978 | -0.0096 | 0.0752 | -0.0028 | 0.0136 | -0.0553 | -0.0375 | 
CCc1c2c(nc3ccc(O)cc13)-c1cc3c(c(=O)n1C2)COC(=O)[C@]3(O)CC [SN-38] + O=C(c1cc(Cc2n[nH]c(=O)c3ccccc23)ccc1F)N1CCN(C(=O)C2CC2)CC1 [Olaparib] (first compound max 0.3 µM, 7x7, partner max 10 µM) | 0.0164 | 0.0795 | 0.0253 |  | 0.051 |  | 0.0559 | 0.0508 | 0.0633 | 0.0881 | 0.0236 | 0.0271 |  | 0.0628 |  | 0.0909 |  | 0.0474 | 0.0246 | 0.0486
CN(C)CCCOc1ccc(-c2ccc3ncc4c(c3c2)n(C2CCOCC2)c(=O)n4C)cn1 [AZD0156] + O=C(c1cc(Cc2n[nH]c(=O)c3ccccc23)ccc1F)N1CCN(C(=O)C2CC2)CC1 [Olaparib] (first compound max 3 µM, partner max 3 µM) | 0.0383 | 0.0281 | 0.285 | 0.0269 | 0.0055 | 0.0824 | 0.106 | -0.0316 | 0.117 | 0.123 | -0.046 | 0.0176 | -0.0093 | -0.0191 | 0.109 | -0.0273 | -0.014 | -0.0162 | 0.0023 | 

— the supplement of paper PMC11061612
